How the values were obtained:
SK-Br-3 cells = assay: Growth inhibition of SK-Br-3 cells; format: cell-based; conditions: modest EGFR, extremely high HER2/neu
Procedure: (§1) Tissue culture. MDA-MB-468 cells were a kind gift from Dr. Rina Plattner of the University of Kentucky and were maintained in medium consisting of Dulbecco's Modified Eagle Medium containing 10% serum supreme (Fisher) and antibiotics. Cells were grown at 37° C. in 5% CO2 in air. A549 and HCC827 lung cancer cells, as well as SK-Br-3 breast cancer cells were obtained from the ATCC (American Type Culture Collection) and were grown under the same conditions. The H1650 lung cancer cell line was a kind gift from Dr. Heinz Kohler of the University of Kentucky. The Pgrmc1 ligand AG-205 was purchased from Timtec, Inc. The EGFR inhibitor AG1478 was from Biomol, Inc. and was used at a concentration range of 0.8-40 μM.

MDA-MB-231 = assay: AG-205 viability assay in MDA-MB-231 cells; format: cell-based; conditions: MDA-MB-231, breast, serum-starved, EGFR wild-type
Procedure: (A) Pgrmc1 (SEQ ID NO: 7) shares homology with AtMAPR2 (SEQ ID NO: 8) (underlined residues), which was the target for a screen for small molecule ligands. The putative heme-binding Tyr106 and Tyr112 are indicated with black boxes. (B) The molecular structure of AG-205 includes multiple aromatic components. (C) Spectroscopic scan of Pgrmc1 with vehicle control compared with vehicle plus 50 µM AG-205. The decrease in relative absorbance at 400 nm is consistent with an AG-205-induced change in the spectral properties of Pgrmc1-heme. The scan is representative of four separate scans using different Pgrmc1 protein preparations. […] Percent viability was determined by cell counting, and “% viability” refers to the cell number relative to the untreated control.
(§2) Proliferation, anchorage-independent growth and migration assays. […] Following the harvest of the final time point, the cells from each time point were counted using a Bright-line hemocytometer (Hausser Scientific).
(§3) MTT viability assays were performed as described previously. […] The cells were then incubated with 0.5 mg/ml of 3-[4,5-dimethylthiazol-2-y]-2,5-diphenyltetrazolium bromide for 1.5 hours, at which time the media was removed, the precipitated crystals were dissolved in dimethyl sulfoxide, and the absorbance at 590 nm was measured using a Bio-Tek μQuant spectrophotometer.

EGFR [1] = assay: Western blot of EGFR levels in MDA-MB-468 cells; format: cell-based, human; conditions: 12-50 μM dose
Procedure: Panel A is a diagram indicating the positions of the siRNA molecules targeting Pgrmc1. Exons 1, 2 and 3 are indicated by “ex”. MDA-MB-468 cells were transfected with a control siRNA (siCON, lanes 1 and 3) or two separate siRNAs targeting Pgrmc1 (siPGR and siPGR2, lanes 2 and 4, respectively). In panels B-E and H-L, protein levels were analyzed by western blot for EGFR (B), phospho-tyrosine (C), Pgrmc1 (D) and ku70 (E), as a control for protein loading. Panels F—H show western blot analyses for (F) IGF-1R, (G) c-Kit and (H) tfR. In panels I and J, transcript levels were analyzed by reverse transcriptase-PCR for EGFR (I) and Pgrmc1 (J). The top band indicates the gene of interest, while actin primers were included in the same reaction as a control for cDNA loading. […] In panels K-L, MDA-MB-468 cells were treated with increasing doses of the Pgrmc1 ligand AG-205. Protein expression was analyzed by western blot for EGFR (K) and ku70 (L). Cells were treated with 0 (lanes 1), 2 (lanes 2), 10 (lanes 3) or 50 (lanes 4) μM AG-205 for 24 hours in serum-free medium. In panels M-N, A549 cells were treated with the same doses and analyzed for EGFR (M) and ku70 (N). […] Expression analyses were repeated at least in duplicate throughout.
Immunological techniques. […]

[2] = tested on: Met receptor tyrosine kinase; assay: Western blot of Met in A549 cells; format: cell-based, human
Procedure: (§4) Immunological techniques. Cells were extracted in RIPA buffer (50 mM Tris, pH 8.0, 1% Nonidet P-40, 150 mM NaCl, 0.5% sodium deoxycholate, 0.1% sodium dodecyl sulfate, 1 mM phenylmethylsulfonyl fluoride, 10 μg/ml of aprotinin, leupeptin and pepstatin) for standard western blotting. The antibodies used in the study were anti-caveolin-1 (N-20, Santa Cruz Biologicals, # sc-894), anti-EGFR (1005, Santa Cruz, # sc-03), anti-ku70 (A-9, Santa Cruz # sc-5309), anti-Met (C-12, Santa Cruz # sc-10), anti-PARP (H-250, Santa Cruz # sc-7150), anti-phosphotyrosine (P-Tyr-100, Cell Signaling), anti-Pgrmc1 (Novus Biologics) and anti-tubulin (Neomarkers). Some western blots for Pgrmc1 were performed with a polyclonal antibody called anti-PGR-UK1 which was raised in rabbits to an internal 10 amino acid peptide.

NIH-3T3 cells = assay: Growth inhibition of NIH-3T3 cells; format: cell-based; conditions: wild-type EGFR
EGFR [3] = assay: EGFR immunofluorescence localization in MDA-MB-468 cells; format: cell-based, human; conditions: AG-205-treated cells after 24 hours, 20 μM
Procedure: To test this model, EGFR was stained by immunofluorescence 24 hours after treatment with 20 μM AG-205 in MDA-MB-468 cells. In cells treated with the vehicle control, EGFR localized to the cell membrane. In contrast, EGFR localized to both the cell membrane and an intracellular ring which corresponds to the perinuclear region of the cell. Also, Pgrmc1 may control the uptake from the membrane to the perinuclear region.
Immunofluorescence for EGFR was performed as described previously (Crudden et al., (2005) Tumour Biol 26:142-6). Cells were grown on chamber slides, washed and fixed with 3.7% formaldehyde. The cells were then permeabilized with 0.1% Triton X-100 in phosphate-buffered saline, blocked with 10% serum and incubated, in turn, with anti-EGFR 1005 and a Texas red-labeled anti-rabbit secondary antibody.

A549 cells [4] = assay: FACS cell cycle analysis; format: cell-based, human; conditions: triplicate FACS analysis, AG-205-treated cells
Procedure: (A) Graph of triplicate FACS analysis. […] (B) Protein expression was analyzed by western blot for Pgrmc1 (top) and ku70 (bottom). Cells were treated with 0 (lanes 1), 2 (lanes 2), 10 (lanes 3) or 50 (lanes 4) μM AG-205 for 24 hours. […] (C-D) The panels show western blots of phosphorylated ERK1/2 (upper panels) and total ERK1/2 (lower panels) The lanes in panel C are A549/con (lane 1), A549/RNAi (lane 2), A549/LacZ (lane 3) and A549/PGR-hbd cells (lane 4) following 48 hours serum starvation. The cells infected with adenovirus were similar to those described in FIG. 3, panels C and D. In panel D, A549 cells were treated with vehicle (lane 1) or 20 μM AG-205 (lane 2) for 24 hours in serum-free media. (E) A549/con (solid line) or A549/RNAi (dashed line) cells were treated with increasing doses of AG-205 for 72 hours and viability was measured by counting, and “% viability” refers to the cell number relative to the untreated control. […] Percent viability was determined by cell counting, and “% viability” refers to the cell number relative to the untreated control. […]
FACS was performed essentially as described previously (Mallory (2005)). […] FACS analysis was performed at the University of Kentucky flow cytometry facility, and the data were analyzed using Modfit software (Verity, Inc.).

H1650 = assay: AG-205 viability assay in H1650 cells; format: cell-based
Procedure: as §1
as §2, with “assays. For growth curves, cells were plated in 24 well dishes and grown in 10% serum-containing medium.” for “assays.”
as §3

H358 = assay: AG-205 viability assay in H358 cells; format: cell-based; conditions: H358, lung, serum-starved, EGFR wild-type
Procedure: (§5) Proliferation, anchorage-independent growth and migration assays. For growth curves, cells were plated in 24 well dishes and grown in 10% serum-containing medium. At various times, the cells were harvested with trypsin and fixed with formaldehyde added to a final concentration of 3.7%. Following the harvest of the final time point, the cells from each time point were counted using a Bright-line hemocytometer (Hausser Scientific).
(§6) MTT viability assays were performed as described previously. Briefly, cells were plated in 96-well tissue culture dishes and grown in various media with different drug doses. The cells were then incubated with 0.5 mg/ml of 3-[4,5-dimethylthiazol-2-y]-2,5-diphenyltetrazolium bromide for 1.5 hours, at which time the media was removed, the precipitated crystals were dissolved in dimethyl sulfoxide, and the absorbance at 590 nm was measured using a Bio-Tek μQuant spectrophotometer.

A549 cells [5] = assay: Viability of A549 cells; format: cell-based, human
Procedure: (A) Pgrmc1 (SEQ ID NO: 7) shares homology with AtMAPR2 (SEQ ID NO: 8) (underlined residues), which was the target for a screen for small molecule ligands. The putative heme-binding Tyr106 and Tyr112 are indicated with black boxes. (B) The molecular structure of AG-205 includes multiple aromatic components. (C) Spectroscopic scan of Pgrmc1 with vehicle control compared with vehicle plus 50 µM AG-205. The decrease in relative absorbance at 400 nm is consistent with an AG-205-induced change in the spectral properties of Pgrmc1-heme. The scan is representative of four separate scans using different Pgrmc1 protein preparations. The lower scan is a comparison of purified Pgrmc1 without and with the vehicle control (DMSO). Panels D (A549 cells) and E (MDA-MB-231 cells) are viability assays of cells maintained in 0.1% serum (solid line) or 10% serum (dashed line) and treated with increasing doses of AG-205. Percent viability was determined by cell counting, and “% viability” refers to the cell number relative to the untreated control.
as §1, §5, §6

Pgrmc1 = Pgrmc1 (Homo sapiens, UniProt O00264); assay: Western blot of Pgrmc1 levels in MDA-MB-468 cells; format: cell-based
Pgrmc1, sequence (O00264 whole entry): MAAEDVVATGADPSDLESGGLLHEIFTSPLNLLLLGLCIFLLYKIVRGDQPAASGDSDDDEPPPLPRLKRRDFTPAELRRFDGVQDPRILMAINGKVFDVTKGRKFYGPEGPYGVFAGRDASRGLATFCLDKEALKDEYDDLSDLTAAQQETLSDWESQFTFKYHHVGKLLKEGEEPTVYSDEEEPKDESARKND
Procedure: as §4

With Cc1ccc2c(c1)[C@H]1CN(C)CC[C@H]1N2C(=O)CSc1nnnn1-c1ccc(Cl)cc1 [AG-205] the “sensitivity to growth inhibition” value (SK-Br-3 cells) was “relatively insensitive”, the IC50 (MDA-MB-231) was 18 µM and the “decrease in EGFR levels” value (EGFR [1]) was 14 fold. For the same compound, the “stability of Met receptor tyrosine kinase” value [2] was “little effect”, the growth inhibition (NIH-3T3 cells) was “inhibited” and the EGFR localization (EGFR [3]) was “EGFR localized to the perinuclear region of the cell”. For the same compound, the cell cycle distribution (A549 cells [4]) was “significant G1 arrest and accumulation of sub-G1 cells”, the IC50 (H1650; H1650, lung, serum-starved, EGFR ΔE746-A750) was greater than 100 µM and the “sensitivity to growth inhibition” value (H1650; H1650 cells, ΔE746-A750 EGFR) was “relatively insensitive”. For the same compound, the IC50 (H358) was 12 µM, the IC50 (A549 cells [5]; A549, lung, serum-starved, EGFR wild-type, read-out: IC50 values for AG-205, Serum-starved) was 15 µM and the cell viability (A549 cells [5]; A549 cells, 20 μM dose, 72-96 hours after treatment) was “marked loss of viability”. For the same compound, the “decrease in viability / cells killed” value (A549 cells [5]; A549 cells, single agent) was 47%, the “cell growth inhibition” value (A549 cells [5]; A549 cells, wild-type EGFR) was “efficiently inhibited cell growth” and the “toxicity in Pgrmc1-inhibited A549 cells” value (A549 cells [5]; Pgrmc1-inhibited versus control A549 cells, after 36 hours, P=0.0001) was “decreased toxicity”. The “viability of Pgrmc1-hbd-expressing cells” value (A549 cells [5]; cells expressing heme binding-deficient mutant, increasing doses of AG-205, cell counting) was “partially reversed the loss of viability”, the “increase in Pgrmc1 levels” value (Pgrmc1; 12 μM dose) was 4.8 fold and the Pgrmc1 levels (Pgrmc1; doses of 25 and 50 μM) was “nearly undetectable levels”.

Source: patent publication US9724337B2, “AG-205 for the treatment of breast cancer” (University of Kentucky Research Foundation, priority 2009, dated 2017)
